Test results as given in ChEMBL document CHEMBL5257026, “Progress and prospects on DENV protease inhibitors” (Eur J Med Chem, 2016).
Blank lines part the entries; values can stand above or below the compound they belong to. Residues, ends and D or L forms follow the SMILES beside them.

What was measured:
[1] = Inhibition of DENV4 recombinant NS2B-NS3 protease expressed in Escherichia coli using Abz-RRRRSAG-nY-NH2 as substrate preincubated for 20 mins at 37 degC followed by substrate addition measured after 60 mins by fluorescence spectrophotometric analysis; set-up: species or system dengue virus type 4
[2] = Inhibition of DENV1 recombinant NS2B-NS3 protease expressed in Escherichia coli using Abz-RRRRSAG-nY-NH2 as substrate preincubated for 20 mins at 37 degC followed by substrate addition measured after 60 mins by fluorescence spectrophotometric analysis; set-up: species or system dengue virus type 1
[3] = Inhibition of DENV3 recombinant NS2B-NS3 protease expressed in Escherichia coli using Abz-RRRRSAG-nY-NH2 as substrate preincubated for 20 mins at 37 degC followed by substrate addition measured after 60 mins by fluorescence spectrophotometric analysis; set-up: species or system dengue virus type 3
[4] = Inhibition of DENV2 recombinant NS2B-NS3 protease expressed in Escherichia coli using Abz-RRRRSAG-nY-NH2 as substrate preincubated for 20 mins at 37 degC followed by substrate addition measured after 60 mins by fluorescence spectrophotometric analysis; set-up: species or system dengue virus type 2
[5] = Inhibition of DENV2 TSV01 NS2B-NS3 protease using BOC-GRR-AMC as substrate incubated for 30 mins by spectrofluorometeric assay; set-up: species or system dengue virus type 2
[6] = Inhibition of DENV2 NS2B-NS3 protease using Boc-Gly-Lys-Arg-AMC as substrate incubated for 30 mins by fluorescence assay; set-up: species or system dengue virus type 2
[7] = Inhibition of DENV4 NS2B-NS3 protease expressed in Escherichia coli BL21 (DE3) using Bz-Nle-Lys-Arg-Arg-AMC as substrate preincubated for 30 mins followed by substrate addition by fluorescence plate reader analysis; set-up: species or system dengue virus type 4
[8] = Inhibition of DENV1 NS2B-NS3 protease expressed in Escherichia coli BL21 (DE3) using Bz-Nle-Lys-Arg-Arg-AMC as substrate preincubated for 30 mins followed by substrate addition by fluorescence plate reader analysis; set-up: species or system dengue virus type 1
[9] = Inhibition of DENV2 NS2B-NS3 protease expressed in Escherichia coli BL21 (DE3) using Bz-Nle-Lys-Arg-Arg-AMC as substrate preincubated for 30 mins followed by substrate addition by fluorescence plate reader analysis; set-up: species or system dengue virus type 2
[10] = Inhibition of DENV3 NS2B-NS3 protease expressed in Escherichia coli BL21 (DE3) using Bz-Nle-Lys-Arg-Arg-AMC as substrate preincubated for 30 mins followed by substrate addition by fluorescence plate reader analysis; set-up: species or system dengue virus type 3
[11] = Inhibition of DENV2 N-terminally hexa-His tagged NS2B (49 to 92 residues) -NS3 (1 to 184 residues) protease using Ac-TTSTRR-pNA as substrate preincubated for 10 mins followed by substrate addition and measured after 120 mins by HTS assay; set-up: species or system dengue virus type 2
dengue virus type 2 = assay: Antiviral activity against DENV2 infected in Golden hamster BHK-21 cells assessed as reduction in viral titer incubated for 72 hrs by plaque-forming assay; assay type: functional, organism-based; conditions: BHK-21, 72 h
[12] = Selectivity index, ratio of CC50 for cytotoxicity against African green monkey Vero cells to EC50 for antiviral activity against DENV2 New Guinea C infected in African green monkey Vero cells; assay type: toxicity, cell-based; conditions: read-out: Ratio CC50/EC50
[13] = Selectivity index, ratio of CC50 for cytotoxicity against African green monkey Vero cells to EC50 for antiviral activity against DENV3 P12-08 infected in African green monkey Vero cells; assay type: toxicity, cell-based; conditions: read-out: Ratio CC50/EC50
[14] = Selectivity index, ratio of CC50 for cytotoxicity against African green monkey Vero cells to EC50 for antiviral activity against DENV1 P03-08 infected in African green monkey Vero cells; assay type: toxicity, cell-based; conditions: read-out: Ratio CC50/EC50
[15] = Selectivity index, ratio of CC50 for cytotoxicity against African green monkey Vero cells to EC50 for antiviral activity against DENV4 P11-08 infected in African green monkey Vero cells; assay type: toxicity, cell-based; conditions: read-out: Ratio CC50/EC50
[16] = Inhibition of DENV2 NS2B-NS3 protease using Bz-Nle-Lys-Arg-Arg-AMC as substrate preincubated for 15 mins followed by substrate addition by fluorescence assay; set-up: species or system dengue virus type 2

Structure (SMILES): NC(=O)[C@H](Cc1c[nH]c2ccccc12)NC(=O)[C@H](CS)NC(=O)[C@H](Cc1ccc(O)cc1)NC(=O)[C@@H](N)Cc1c[nH]c2ccccc12 (H-WYCW-NH2)
Ki [1]: 11.2 µM
Ki [2]: 4.2 µM
Ki [3]: 24.4 µM
Ki [4]: 4.8 µM

Structure (SMILES): O=C1c2c(O)ccc([N+](=O)[O-])c2C(=O)c2c([N+](=O)[O-])ccc(O)c21
Ki [5]: 432 µM
Ki [6]: 4.2 µM

Structure (SMILES): O=C(Nc1nc2cc(O)c(O)cc2s1)c1ccccc1Oc1ccc2cc(O)ccc2c1
IC50 [7]: 2 µM
IC50 [8]: 2 µM
IC50 [9]: 2.3 µM
IC50 [10]: 1.6 µM

Structure (SMILES): Cc1ccc(S(=O)(=O)Nc2cc(SCC(=O)O)c(O)c3ccccc23)cc1[N+](=O)[O-]
selectivity ratio [12]: 68.6
selectivity ratio [13]: 27.7
selectivity ratio [14]: 69.3
selectivity ratio [15]: 90.8

Further lines, with some results ahead:

IC50 [11]: 22.6 µM
Structure (SMILES): c1ccc(-c2ccc(Nc3nnc(Nc4ccc(C5=NCCN5)cc4)c4ccccc34)cc2)cc1
EC50 (dengue virus type 2): 0.23 µM

IC50 [16]: 48.2 µM
Structure (SMILES): CCc1ccc(NS(=O)(=O)c2ccc(N3C(=O)c4ccccc4C3=O)cc2)cc1
